Results published in ChEMBL document CHEMBL1201862, “PubChem BioAssay data set” (2004).
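Results reflect a 48-hour exposure of cells in 96-well plates to compound at five concentrations. At the GI50, growth is halved.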 Activity calls are given as the source filed them. Rule as the data show it: active = GI50 up to about 1.1 µM and inactive = higher.

Assays:
Experiment in all cases: growth of human tumour cells (NCI), 48 h
786-0 = system: 786-0
A498 = system: A498
A549 = system: A549
ACHN = system: ACHN
BT-549 = system: BT-549
CAKI-1 = system: CAKI-1
CCRF-CEM = system: CCRF-CEM
COLO 205 = system: COLO 205
DLD-1 = system: DLD-1
DMS-114 = system: DMS-114
DMS-273 = system: DMS-273
DU-145 = system: DU-145
EKVX = system: EKVX
HCC 2998 = system: HCC 2998
HCT-116 = system: HCT-116
HCT-15 = system: HCT-15
HL-60 = system: HL-60
HOP-62 = system: HOP-62
HOP-92 = system: HOP-92
HT-29 = system: HT-29
Hs-578T = system: Hs-578T
IGROV-1 = system: IGROV-1
K562 = system: K562
KM-20L2 = system: KM-20L2
KM12 = system: KM12
LOX IMVI = system: LOX IMVI
LXFL 529 = system: LXFL 529
M14 = system: M14
M19-MEL = system: M19-MEL
MCF7 = system: MCF7
MDA-MB-231 = system: MDA-MB-231
MDA-MB-435 = system: MDA-MB-435
MDA-N = system: MDA-N
MOLT-4 = system: MOLT-4
Malme-3M = system: Malme-3M
NCI-H226 = system: NCI-H226
NCI-H23 = system: NCI-H23
NCI-H460 = system: NCI-H460
NCI-H522 = system: NCI-H522
NCI/ADR-RES = system: NCI/ADR-RES
OVCAR-3 = system: OVCAR-3
OVCAR-4 = system: OVCAR-4
OVCAR-5 = system: OVCAR-5
OVCAR-8 = system: OVCAR-8
PC-3 = system: PC-3
RPMI-8226 = system: RPMI-8226
RXF 393 = system: RXF 393
RXF 631 = system: RXF 631
SF-268 = system: SF-268
SF-295 = system: SF-295
SF-539 = system: SF-539
SK-MEL-28 = system: SK-MEL-28
SK-MEL-2 = system: SK-MEL-2
SK-MEL-5 = system: SK-MEL-5
SK-OV-3 = system: SK-OV-3
SN12C = system: SN12C
SNB-19 = system: SNB-19
SNB-75 = system: SNB-75
SNB-78 = system: SNB-78
SR = system: SR
SW-620 = system: SW-620
T47D = system: T47D
TK-10 = system: TK-10
U-251 = system: U-251
UACC-257 = system: UACC-257
UACC-62 = system: UACC-62
UO-31 = system: UO-31
XF498 = system: XF498
HOP-18 = system: HOP-18

COC1=C(N=[N+]=[N-])C(=O)c2ncccc2C1=O
GI50 (786-0): 8.79 µM (inactive)
GI50 (A498): 17.1 µM (inactive)
GI50 (A549): 16.6 µM (inactive)
GI50 (ACHN): 4.28 µM (inactive)
GI50 (BT-549): 10.8 µM (inactive)
GI50 (CAKI-1): 5.58 µM (inactive)
GI50 (CCRF-CEM): 0.401 µM (active)
GI50 (COLO 205): 3.04 µM (inactive)
GI50 (DLD-1): 1.65 µM (inactive)
GI50 (DMS-114): 6.85 µM (inactive)
GI50 (DMS-273): 12.9 µM (inactive)
GI50 (DU-145): 20.8 µM (inactive)
GI50 (EKVX): 8.61 µM (inactive)
GI50 (HCC 2998): 17.1 µM (inactive)
GI50 (HCT-116): 2.65 µM (inactive)
GI50 (HCT-15): 7.83 µM
GI50 (HL-60): 0.962 µM (active)
GI50 (HOP-62): 15.8 µM (inactive)
GI50 (HOP-92): 1.29 µM (inactive)
GI50 (HT-29): 18.4 µM (inactive)
GI50 (Hs-578T): 18.5 µM (inactive)
GI50 (IGROV-1): 5.38 µM (inactive)
GI50 (K562): 2.84 µM (inactive)
GI50 (KM-20L2): 18.5 µM (inactive)
GI50 (KM12): 15.6 µM (inactive)
GI50 (LOX IMVI): 3.3 µM (inactive)
GI50 (LXFL 529): 1.72 µM (inactive)
GI50 (M14): 3.73 µM (inactive)
GI50 (M19-MEL): 1.91 µM (inactive)
GI50 (MCF7): 1.82 µM (inactive)
GI50 (MDA-MB-231): 12.4 µM (inactive)
GI50 (MDA-MB-435): 2.12 µM (inactive)
GI50 (MDA-N): 1.95 µM (inactive)
GI50 (MOLT-4): 0.887 µM (active)
GI50 (Malme-3M): 2.33 µM (inactive)
GI50 (NCI-H226): 19.2 µM (inactive)
GI50 (NCI-H23): 5.36 µM (inactive)
GI50 (NCI-H460): 15.7 µM (inactive)
GI50 (NCI-H522): 1.9 µM (inactive)
GI50 (NCI/ADR-RES): 10 µM (inactive)
GI50 (OVCAR-3): 5.57 µM (inactive)
GI50 (OVCAR-4): 2.69 µM (inactive)
GI50 (OVCAR-5): 19.5 µM (inactive)
GI50 (OVCAR-8): 3.47 µM (inactive)
GI50 (PC-3): 15.5 µM (inactive)
GI50 (RPMI-8226): 1.88 µM (inactive)
GI50 (RXF 393): 3.75 µM (inactive)
GI50 (RXF 631): 16.3 µM (inactive)
GI50 (SF-268): 14.5 µM (inactive)
GI50 (SF-295): 15.6 µM (inactive)
GI50 (SF-539): 16 µM (inactive)
GI50 (SK-MEL-28): 14.3 µM (inactive)
GI50 (SK-MEL-2): 18.6 µM (inactive)
GI50 (SK-MEL-5): 10.1 µM (inactive)
GI50 (SK-OV-3): 15.2 µM (inactive)
GI50 (SN12C): 15.5 µM (inactive)
GI50 (SNB-19): 17.1 µM (inactive)
GI50 (SNB-75): 13.1 µM (inactive)
GI50 (SNB-78): 5.7 µM (inactive)
GI50 (SR): 2.36 µM (inactive)
GI50 (SW-620): 1.95 µM (inactive)
GI50 (T47D): 2.13 µM (inactive)
GI50 (TK-10): 10.9 µM (inactive)
GI50 (U-251): 14.6 µM (inactive)
GI50 (UACC-257): 4.34 µM (inactive)
GI50 (UACC-62): 7.82 µM (inactive)
GI50 (UO-31): 14.4 µM (inactive)
GI50 (XF498): 4.74 µM (inactive)

[O-][n+]1c(-c2ccccc2)c2nc3ccccc3nc2c2ccccc21
GI50 (786-0): > 100 µM (inactive)
GI50 (A498): > 100 µM (inactive)
GI50 (A549): > 100 µM (inactive)
GI50 (ACHN): > 100 µM (inactive)
GI50 (CAKI-1): > 100 µM (inactive)
GI50 (CCRF-CEM): > 100 µM (inactive)
GI50 (COLO 205): > 100 µM (inactive)
GI50 (DLD-1): > 100 µM (inactive)
GI50 (DMS-114): > 100 µM (inactive)
GI50 (DMS-273): > 100 µM (inactive)
GI50 (EKVX): > 100 µM (inactive)
GI50 (HCC 2998): > 100 µM (inactive)
GI50 (HCT-116): > 100 µM (inactive)
GI50 (HCT-15): > 100 µM
GI50 (HOP-62): > 100 µM (inactive)
GI50 (HOP-92): > 100 µM (inactive)
GI50 (HT-29): > 100 µM (inactive)
GI50 (IGROV-1): > 100 µM (inactive)
GI50 (K562): > 100 µM (inactive)
GI50 (KM-20L2): > 100 µM (inactive)
GI50 (KM12): > 100 µM (inactive)
GI50 (LOX IMVI): > 100 µM (inactive)
GI50 (LXFL 529): 7.78 µM (inactive)
GI50 (M14): > 100 µM (inactive)
GI50 (M19-MEL): > 100 µM (inactive)
GI50 (MOLT-4): > 100 µM (inactive)
GI50 (Malme-3M): > 100 µM (inactive)
GI50 (NCI-H226): > 100 µM (inactive)
GI50 (NCI-H23): > 100 µM (inactive)
GI50 (NCI-H460): > 100 µM (inactive)
GI50 (NCI-H522): > 100 µM (inactive)
GI50 (OVCAR-3): > 100 µM (inactive)
GI50 (OVCAR-4): 5 µM (inactive)
GI50 (OVCAR-5): > 100 µM (inactive)
GI50 (OVCAR-8): > 100 µM (inactive)
GI50 (RPMI-8226): > 100 µM (inactive)
GI50 (RXF 393): > 100 µM (inactive)
GI50 (RXF 631): > 100 µM (inactive)
GI50 (SF-268): > 100 µM (inactive)
GI50 (SF-295): > 100 µM (inactive)
GI50 (SF-539): > 100 µM (inactive)
GI50 (SK-MEL-28): > 100 µM (inactive)
GI50 (SK-MEL-2): > 100 µM (inactive)
GI50 (SK-MEL-5): > 100 µM (inactive)
GI50 (SK-OV-3): > 100 µM (inactive)
GI50 (SN12C): > 100 µM (inactive)
GI50 (SNB-19): > 100 µM (inactive)
GI50 (SNB-75): 31.1 µM (inactive)
GI50 (SNB-78): 27.5 µM (inactive)
GI50 (SW-620): > 100 µM (inactive)
GI50 (TK-10): > 100 µM (inactive)
GI50 (U-251): > 100 µM (inactive)
GI50 (UACC-257): > 100 µM (inactive)
GI50 (UACC-62): > 100 µM (inactive)
GI50 (UO-31): > 100 µM (inactive)
GI50 (XF498): > 100 µM (inactive)

CCOC(=O)C(=Cc1cc(OC)ccc1OC)C(=O)OCC
GI50 (786-0): 3.56 µM (inactive)
GI50 (A498): 14.4 µM (inactive)
GI50 (A549): 6.3 µM (inactive)
GI50 (ACHN): 11.9 µM (inactive)
GI50 (CAKI-1): 13.6 µM (inactive)
GI50 (CCRF-CEM): 2.95 µM (inactive)
GI50 (COLO 205): 4.88 µM (inactive)
GI50 (DLD-1): 8.41 µM (inactive)
GI50 (DMS-114): 2.81 µM (inactive)
GI50 (DMS-273): 3.75 µM (inactive)
GI50 (EKVX): 10.6 µM (inactive)
GI50 (HCC 2998): 20 µM (inactive)
GI50 (HCT-116): 14.4 µM (inactive)
GI50 (HCT-15): 5.71 µM
GI50 (HL-60): 1.96 µM (inactive)
GI50 (HOP-18): 11.4 µM (inactive)
GI50 (HOP-62): 10.4 µM (inactive)
GI50 (HOP-92): 3.2 µM (inactive)
GI50 (HT-29): 3.85 µM (inactive)
GI50 (IGROV-1): 23.8 µM (inactive)
GI50 (K562): 3.42 µM (inactive)
GI50 (KM-20L2): 2.21 µM (inactive)
GI50 (KM12): 6.53 µM (inactive)
GI50 (LOX IMVI): 3.83 µM (inactive)
GI50 (LXFL 529): 3.26 µM (inactive)
GI50 (M14): 11.6 µM (inactive)
GI50 (M19-MEL): 4.07 µM (inactive)
GI50 (MOLT-4): 5.89 µM (inactive)
GI50 (Malme-3M): 10.9 µM (inactive)
GI50 (NCI-H226): 10.6 µM (inactive)
GI50 (NCI-H23): 3.03 µM (inactive)
GI50 (NCI-H460): 30.2 µM (inactive)
GI50 (NCI-H522): 3.66 µM (inactive)
GI50 (OVCAR-3): 10.7 µM (inactive)
GI50 (OVCAR-4): 7.89 µM (inactive)
GI50 (OVCAR-5): 6.27 µM (inactive)
GI50 (OVCAR-8): 4.72 µM (inactive)
GI50 (RPMI-8226): 3.44 µM (inactive)
GI50 (RXF 393): 1.83 µM (inactive)
GI50 (RXF 631): 5.81 µM (inactive)
GI50 (SF-268): 5.36 µM (inactive)
GI50 (SF-295): 12.4 µM (inactive)
GI50 (SF-539): 4.1 µM (inactive)
GI50 (SK-MEL-28): 4.71 µM (inactive)
GI50 (SK-MEL-2): 4.75 µM (inactive)
GI50 (SK-MEL-5): 4.16 µM (inactive)
GI50 (SK-OV-3): 15.8 µM (inactive)
GI50 (SN12C): 5.27 µM (inactive)
GI50 (SNB-19): 11.9 µM (inactive)
GI50 (SNB-75): 1.67 µM (inactive)
GI50 (SW-620): 3.52 µM (inactive)
GI50 (TK-10): > 10 µM (inactive)
GI50 (U-251): 4.79 µM (inactive)
GI50 (UACC-62): 1.83 µM (inactive)
GI50 (XF498): 11.2 µM (inactive)
